Experimental data as given in patent publication US4952689A, “3-(substituted propylidene)-2-azetidinone derivates for blood platelet aggregation” (Taisho Pharmaceutical Co., Ltd., priority 1988, dated 1990).

tested on: acute thrombocytopenia; assay: Inhibitory effect on acute thrombocytopenia in mice (ADP-induced); assay type: in vivo, male ICR mice; settings: 300 mg/kg by gavage 2 hours prior to ADP (1 mg/kg, tail vein); platelet count at 30 seconds after ADP
Method: Experiment [Inhibitory effect on acute thrombocytopenia in mice]
Ten male ICR mice weighing 20-30 g were used for each group. Under pentobarbital anaesthesia, adenosine diphosphate (ADP) dissolved in physiological saline in a dose of 1 mg/kg was injected into the tail vein and 20 μl of blood was collected from the femoral artery at 30 seconds after injection of ADP. Immediately after blood sampling, platelet counts were measured with an automatic blood cell counter (Sysmex CC-180A). Platelet count of normal group without injection of ADP was measured as well.
Test drugs [Compounds 2 and 3 (the compounds of the present invention) and Compound 1 (the comparative drug) in Table 1] were suspended in 5% gum arabic solution and administered by gavage in a dose of 300 mg/kg 2 hours prior to injection of ADP. As control group, 5% gum arabic solution without test drugs was administered.
Inhibition ratio of acute thrombocytopenia was calculated by the following formula. [formula]
Note: A: Platelet count of the group treated with both test drug and ADP
B: Platelet count of control group with both 5% gum arabic solution and ADP
C: Platelet count of normal group without injection of ADP

Point of comparison: `COc1ccc(N2C(=O)/C(=C/C(C)=NOCCCN3CCN(c4ccccn4)CC3)C2c2ccccc2)cc1` (stereo not drawn) [Compound 3, (E)-1-(4-Methoxyphenyl)-3-[2-[3-{1-[4-(2-pyridyl)piperadinyl]}propoxyimino]-propylidene]-4-phenyl-2-azetidinone], “Inhibition Ratio” value 57.61%. Against it:
- COc1ccc(N2C(=O)/C(=C/C(C)=NOCC(=O)O)C2c2ccccc2)cc1 (stereo not drawn) [Compound 1, (E)-1-(4-Methoxyphenyl)-3-(2-carboxymethoxyiminopropylidene)-4-phenyl-2-azetidinone, reference compound] — lower, 12.00%
- COc1ccc(N2C(=O)/C(=C/C(C)=NOCCCN3CCOCC3)C2c2ccccc2)cc1 (stereo not drawn) [Compound 2, (E)-1-(4-Methoxyphenyl)-3-{2-[3-(4-morpholinyl)propoxyimino]propylidene}-4-phenyl-2azetidinone] — lower, 54.66%
